# Experimental data reported in patent US8263754B2, “Amphiphiles for protein solubilization and stabilization” (Wisconsin Alumni Research Foundation, priority 2008, dated 2012).
# “Also recorded” adds a separate entry of the source. Like-named read-outs stand apart in the source and are kept apart here.
# How the values were obtained:
# [1] = cited from earlier work; for Buffer Range: pH range
# [2] = system: LHI-RC superassembly in Rhodobacter capsulatus membranes; details: for Level (S/P solubilization rank and detergent strength): detergent at 10x CMC, 30 minutes at 32° C.; for extraction of LHI-RC superassembly from R. capsulatus membranes: solubilized protein, optical spectroscopy
# Excerpt: These complexes, normally embedded in the bacterial membrane, are highly pigmented and several outcomes from an assay are possible, including no degradation, partial degradation or complete degradation upon solubilization, or no solubilization. Thus, graded comparative evaluations could be obtained for a set of candidates such as the amphiphiles described herein.
# In the engineered strain of R. capsulatus employed, the photosynthetic unit was comprised of a very labile LHI complex and a more resilient RC complex. An ideal amphiphile for this system will extract the intact LHI-RC superassembly from a bacterial membrane preparation and maintain the natural interactions among the components. Amphiphiles with a more disruptive effect will dissociate and denature LHI, leaving only intact RC, and even harsher amphiphiles will cause RC degradation. Each of these various outcomes can be assessed unambiguously via optical spectroscopy (FIG. 2 inset).
# Measurements. The starting material for the screening protocols and stability measurements included specialized photosynthetic membranes from an engineered strain of Rhodobacter (R.) capsulatus, U43[pUHTM86Bgl]
# To begin the solubilization and purification process, frozen aliquots of R. capsulatus membranes were thawed, homogenized, and equilibrated to 32° C. for 30 minutes. […] For subsequent experiments, the amphiphiles were evaluated at 10-fold CMC during the solubilization step.
# The membrane samples were allowed to incubate with the amphiphile for 30 minutes at 32° C. The solubilized material was then separated from the membrane debris in an ultracentrifuge at 315,000×g at 4° C. for 30 minutes. […] After a UV-Vis-nearIR absorption spectrum was recorded, the resuspended pellet was discarded. […] The tubes were then incubated and inverted for 1 hour at 4° C.
# Once binding was complete, samples were loaded onto resin-retaining spin columns (e.g., emptied His Spin Trap™ columns; GE Healthcare). The columns were then inserted into a 2 mL microcentrifuge tube to retain the filtered solution during centrifugation. […] Finally, protein was eluted into a fresh microcentrifuge tube with three 0.2 mL elution buffer aliquots (this buffer was identical to binding buffer with the addition of 1 M imidazole).
# The R. capsulatus LHI-RC complexes extracted and purified by this procedure contain large numbers of cofactors that have absorptions at distinct wavelengths, and each component of the LHI-RC superassembly has a different inherent stability outside the lipid bilayer. The solubilization protocol outlined above therefore provides a multifaceted assessment of the efficacy of conventional detergents and novel amphiphiles. UV-Vis absorption spectroscopy data obtained at various stages of the protocol allow one to determine which protein components have degraded at these stages. […] The disruption potential was measured as the yield of superassembly extracted during solubilization (or, alternatively and more precisely, as the absence of superassembly in the pellet from the spin following solubilization).
# The stabilizing propensity was determined from the spectra of the purified protein. An amphiphile was judged to be mild and stabilizing if it allowed the purification of fully intact LHI-RC superassembly (dominant absorption band at 875 nm). […] An amphiphile was judged to be of intermediate strength if it allowed for the purification of fully intact RC with damaged or missing LHI (dominant absorption at 800 nm with a shoulder at 875 nm; damaged LHI still bound to RC absorbs at 760 nm).
# First, solubilization (illustrated in “STEP 1” of FIG. 12) denotes the ability of a surfactant to penetrate, integrate and disrupt a lipid bilayer.
# [3] = Solubility in water / aqueous buffer; type: physicochemical; details: for solubility in water: without cosolvents/additives
# [4] = target: T1, bacteriorhodopsin (bR) (Halobacterium salinarum, UniProt P02945); details: cited from earlier work
# T1 sequence (P02945 14-262): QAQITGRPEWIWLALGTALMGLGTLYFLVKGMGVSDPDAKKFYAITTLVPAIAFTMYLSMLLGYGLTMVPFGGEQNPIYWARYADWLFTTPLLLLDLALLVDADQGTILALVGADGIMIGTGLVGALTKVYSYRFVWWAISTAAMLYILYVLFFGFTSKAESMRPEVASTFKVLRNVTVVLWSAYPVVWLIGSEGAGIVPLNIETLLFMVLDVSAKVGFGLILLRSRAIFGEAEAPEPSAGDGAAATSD
# [5] = Critical micelle concentration (CMC) by dye solubilization (Orange OT or DPH); type: physicochemical; details: for critical micelle concentration (CMC): aqueous solubilization of Orange OT; for CMC / CMC (%): determined by DPH (diphenylhexatriene) or Orange OT
# Excerpt: Aqueous solubilization of Orange OT was used to determine critical micelle concentrations (CMC). […] Facile self-association of these amphiphiles under these conditions may be hindered by the hydrophilicity and/or steric bulk of the triglucoside and dimaltoside headgroups.
# The Critical Micelle Concentrations (CMCs) of compounds of the invention can be determined by standard techniques known to those of skill in the art. For example, CMCs of the carbohydrate-based amphiphiles described herein can be determined by monitoring uptake of a dye (e.g., Orange OT or 1,6-diphenylhexatriene) with increasing detergent concentration, monitored by UV-visible or fluorescence spectroscopy.
# [6] = target: bovine rhodopsin (Bos taurus, UniProt P02699); details: cited from earlier work
# [7] = system: T2, LHI-RC superassembly; assay: Stability over time of solubilized, purified LHI-RC superassembly (A875/A680 ratio); design: species or system Rhodobacter capsulatus; details: room temperature, 875 nm/680 nm absorption ratio over two to three weeks
# T2 construct: Starting with protein complexes in their native lipid bilayer; made in house; host or cells: Rhodobacter capsulatus U43[pUHTM86Bgl], intracytoplasmic membranes (strain lacks LHII)
# Experimental: FIG. 3. To monitor the ability of micelles of DDM, TPA-2, and MPA-2(C12) to stabilize membrane protein complexes, spectra of the protein purified by each detergent were recorded as a function of time. The initial spectrum (t=0) was acquired directly after elution of the protein from affinity chromatography. The integrity of the LHI-RC superassembly solubilized by these relatively mild detergents was monitored quantitatively from a scatter-corrected absorbance ratio (A875/A680). The ratio of a sample of completely folded and functional supperassembly is >14.5, and this ratio declines dramatically as the multi-subunit complex disassembles and denatures.
# Stability was monitored by following the 875 nm/680 nm absorption ratio over a two to three weeks (absorption at 680 nm arises from oxidation of bacteriochlorophyll that has dissociated from LHI protein).
# Similar criteria and protocols were used to judge the ability of amphiphiles to maintain solubilized and purified superassembly for extended periods. In this case, UV Vis-nearIR spectra were recorded at regular intervals. The degradation of the material could be monitored with the A875/A680 absorbance ratio, which decreased with time and sample integrity as the dominant 875 nm absorption of intact LHI disappeared and a 680 nm band appeared, indicating the presence of unbound, oxidized cofactors.
smiles,measurement,setting,value
"O=S(=O)(O)CCN1CCN(CCS(=O)(=O)O)CC1 [PIPES, piperazine-N,N′-bis(2-ethanesulfonic acid)]",pKa at 25° C.,[1],6.76
same,Buffer Range,[1],6.1-7.5
CCCCCCCCCCCCC(=O)NCCO[C@@H]1O[C@H](CO)[C@@H](O[C@H]2O[C@H](CO)[C@@H](O)[C@H](O)[C@H]2O)[C@H](O)[C@H]1O [MPA4],Level (S/P solubilization rank and detergent strength),[2],insoluble
same,solubility in aqueous buffer,[3],not soluble in aqueous buffer
same,solubility in water,[3],not soluble in water without other additives
"O=C(O)CNC(CO)(CO)CO [Tricine, N-tris(hydroxymethyl)methylglycine]",Buffer Range,[1],7.4-8.8
"O=S(=O)(O)CCNC(CO)(CO)CO [TES, 2-{[tris(hydroxymethyl)methyl]amino}ethanesulfonic acid]",Buffer Range,[1],6.8-8.2
"CCCCC(CCCC)(CC(=O)NCCC[N+](C)(C)[O-])c1ccccc1 [TPA0, reference compound]",solubilization of bacteriorhodopsin (bR),[4],effectively solubilized
same,stability of resulting protein solution (bR),[4],stable for several weeks
same,extraction of LHI-RC superassembly from R. capsulatus membranes,[2],too harsh to be useful for the preparation of intact superassembly
same,critical micelle concentration (CMC),[5],5.5 mM
same,CMC,[5],4.4 mM
same,CMC (%),[5],0.16%
same,solubilization of bovine rhodopsin,[6],effectively solubilized
same,stability of resulting protein solution (bovine rhodopsin),[6],stable for several weeks
CCCCCCCCCCCCC(=O)NCCO[C@@H]1O[C@H](CO)[C@@H](O)[C@H](O)[C@H]1O [MPA1],Level (S/P solubilization rank and detergent strength),[2],insoluble
same,solubility in aqueous buffer,[3],not soluble in aqueous buffer
same,solubility in water,[3],not soluble in water without other additives
"O=S(=O)(O)CCCN1CCOCC1 [MOPS, 3-(N-morpholino)propanesulfonic acid]",Buffer Range,[1],6.5-7.9
CCCCC(CCCC)(CC(=O)NC(CO[C@H]1OC(CO)[C@H](O)C(O)C1O)CO[C@H]1OC(CO)[C@H](O)C(O)C1O)C1CCCCC1 (stereo partly drawn) [TPA21],extraction of LHI-RC superassembly from R. capsulatus membranes,[2]; listed as TPA-2-S,"as good as or better than TPA-2 at extracting membrane proteins; also recorded: at least as effective as TPA-2, if not superior; also recorded: equal to or superior to TPA-2 at extracting membrane proteins"
same,critical micelle concentration (CMC),[5],1.8 mM
same,CMC,[5],1.8 mM
same,CMC (%),[5],0.12%
same,stability of solubilized LHI-RC superassembly,[7],more stabilizing than those of TPA-2
CCCCC(CCCC)(CC(=O)NC(CO[C@H]1OC(CO)[C@H](O)C(O)[C@H]1O)CO[C@H]1OC(CO)[C@H](O)C(O)[C@H]1O)c1ccccc1 (stereo partly drawn) [TPA2],875 nm/760 nm absorption ratio,[2]; solubilized protein from R. capsulatus membranes,~8
same,extraction of LHI-RC superassembly from R. capsulatus membranes,[2],intact LHI-RC superassembly in high yield
same,critical micelle concentration (CMC),[5],3.6 mM
same,CMC,[5],3.6 mM
same,CMC (%),[5],0.24%
same,stability of solubilized LHI-RC superassembly,[7],remains stable for several days
"CCCCCCCCCCCCO[C@@H]1O[C@H](CO)[C@@H](O[C@H]2O[C@H](CO)[C@@H](O)[C@H](O)[C@H]2O)[C@H](O)[C@H]1O [DDM, dodecyl-β-D-maltopyranoside, reference compound]",extraction of LHI-RC superassembly from R. capsulatus membranes,[2],comparable to TPA-2 and TPA-2-S
same,stability of solubilized LHI-RC superassembly,[7],begins to degrade immediately
"NC(CO)(CO)CO [Tris, tris(hydroxymethyl)methylamine]",Buffer Range,[1],7.5-9.0
CCCCC(CCCC)(CC(=O)NCCOC1OC(CO)C(O)C(O)C1O)c1ccccc1 (stereo not drawn) [TPA1],Level (S/P solubilization rank and detergent strength),[2],insoluble
same,solubility in water,[3],not water-soluble without other cosolvents
CCCCCCCCCCCCC(=O)NC(CO[C@@H]1O[C@H](CO)[C@@H](O[C@H]2O[C@H](CO)[C@@H](O)[C@H](O)[C@H]2O)[C@H](O)[C@H]1O)CO[C@@H]1O[C@H](CO)[C@@H](O[C@H]2O[C@H](CO)[C@@H](O)[C@H](O)[C@H]2O)[C@H](O)[C@H]1O [MPA5],extraction of LHI-RC superassembly from R. capsulatus membranes,[2],did not extract any protein
same,critical micelle concentration (CMC),[5],1.7 mM
same,CMC,[5],1.7 mM
same,CMC (%),[5],0.16%
"O=S(=O)(O)CCCNC(CO)(CO)CO [TAPS, 3-{[tris(hydroxymethyl)methyl]amino}propanesulfonic acid]",pKa at 25° C.,[1],8.43
same,Buffer Range,[1],7.7-9.1
"O=S(=O)(O)CCN1CCN(CCO)CC1 [HEPES, 4-2-hydroxyethyl-1-piperazineethanesulfonic acid]",Buffer Range,[1],6.8-8.2
